The text below walks through data of patent US10154988B2, “Methods and compositions for treating schizophrenia” (The Johns Hopkins University, priority 2012, dated 2018).

Entries after “also recorded” stand apart in the source; their conditions may differ.

For one test, the system named is aged-impaired (AI) rats. The test can be described thus: eight-arm Radial Arm Maze task, one-hour delay (levetiracetam, valproate, combination). Type of test: in vivo, rat. Particulars: for average no. of errors ± SEM in retention test: one-hour delay, vehicle 2.00±0.42; for reducing the number of errors in the radial arm maze: levetiracetam on its own. The protocol:
The effects of levetiracetam on the spatial memory retention of aged-impaired (AI) rats are assessed in a Radial Arm Maze (RAM) behavioral task using vehicle control and five different dosage levels of levetiracetam (1.25 mg/kg/day, 2.5 mg/kg/day, 5 mg/kg/day, 10 mg/kg/day and 20 mg/kg/day). RAM behavioral tasks are preformed on ten AI rats. All six treatment conditions are tested on all ten rats, as described above for the MWM test. The RAM apparatus used consists of eight equidistantly-spaced arms. An elevated maze arm (7 cm width×75 cm length) projects from each facet of an octagonal center platform (30 cm diameter, 51.5 cm height). Clear side walls on the arms are 10 cm high and are angled at 65° to form a trough. A food well (4 cm diameter, 2 cm deep) is located at the distal end of each arm. Froot Loops™ (Kellogg Company) are used as rewards. Blocks constructed of Plexiglas™ (30 cm height×12 cm width) can be positioned to prevent entry to any arm. Numerous extra maze cues surrounding the apparatus are also provided. The AI rats are initially subjected to a pre-training test (Chappell et al. Neuropharmacology 37: 481-487, 1998). The pre-training test consists of a habituation phase (4 days), a training phase on the standard win-shift task (18 days) and another training phase (14 days) in which a brief delay is imposed between presentation of a subset of arms designated by the experimenter (e.g., 5 arms available and 3 arms blocked) and completion of the eight-arm win-shift task (i.e., with all eight arms available). In the habituation phase, rats are familiarized to the maze for an 8-minute session on four consecutive days. In each of these sessions food rewards are scattered on the RAM, initially on the center platform and arms and then progressively confined to the arms. After this habituation phase, a standard training protocol is used, in which a food pellet is located at the end of each arm. Rats receive one trial each day for 18 days. Each daily trial terminates when all eight food pellets have been obtained or when either 16 choices are made or 15 minutes had elapsed. After completion of this training phase, a second training phase is carried out in which the memory demand is increased by imposing a brief delay during the trial. At the beginning of each trial, three arms of the eight-arm maze are blocked. Rats are allowed to obtain food on the five arms to which access is permitted during this initial ‘information phase’ of the trial. Rats are then removed from the maze for 60 seconds, during which time the barriers on the maze are removed, thus allowing access to all eight arms. Rats are then placed back onto the center platform and allowed to obtain the remaining food rewards during this ‘retention test’ phase of the trial. The identity and configuration of the blocked arms varies across trials. The number of “errors” the AI rats make during the retention test phase is tracked. An error occurs in the trial if the rats enter an arm from which food had already been retrieved in the pre-delay component of the trial, or if it re-visits an arm in the post-delay session that has already been visited. After completion of the pre-training test, rats are subjected to trials with more extended delay intervals, i.e., a one-hour delay, between the information phase (presentation with some blocked arms) and the retention test (presentation of all arms). During the delay interval, rats remain off to the side of the maze in the testing room, on carts in their individual home cages. AI rats are pretreated 30-40 minutes before daily trials with a one-time shot of the following six conditions: 1) vehicle control (0.9% saline solution); 2) levetiracetam (1.25 mg/kg/day); 3) levetiracetam (2.5 mg/kg/day); 4) levetiracetam (5 mg/kg/day); 5) levetiracetam (10 mg/kg/day); 6) levetiracetam (20 mg/kg/day); […] Injections are given every other day with intervening washout days. Each AI rat is treated with all six conditions within 23 days of testing. […]

Another test concerns somatostatin in DG hilus. The test can be described thus: somatostatin immunohistochemistry, SOM-immunoreactive hilar neuron counts after 4-week levetiracetam. Type of test: in vivo, rat. Particulars: 10 mg/kg/day, osmotic minipumps, four weeks; AI-LEV vs Y p=0.679, AI-LEV vs AI-VEH p<0.01. How it is done: Under isoflurane anesthesia, memory-impaired aged rats are implanted subcutaneously in the intrascapular region with osmotic mini-pumps (ALZET,
Durect Corporation, Cupertino, Calif.) with levetiracetam (10 mg/kg/day) or saline vehicle for four weeks prior to perfusion. Young rats, which served as controls, receive either saline vehicle in mini-pumps or no implantation.
At the end of the 4-week treatment period, rats are anesthetized with isoflurane and perfused transcardiacally with 0.1 M phosphate buffer saline, followed by 4% paraformaldehyde in phosphate buffer. Brains are removed and post-fixed in paraformaldehyde overnight. […]
Tissue is labeled with anti-SOM antiserum (Santa Cruz Biotechnology; cat. no. SC7819-P) using an established immunoperoxidase protocol and tissue sections are processed concurrently to minimize inter-replication variability (Haberman et al., 2009). […] The secondary antibody is detected with avidin-biotin complex (ABC Elite; Vector Laboratories Inc., Burlingame, Calif.) and the avidin-biotin complex is visualized with nickel-enhanced diaminobenzadine (Vector Laboratories Inc., Burlingame, Calif.). […]
Interneuron quantification is performed using a Zeiss Axioplan 2 microscope equipped with a motorized stage. […] Neuron counts are analyzed as the total number of hilar interneurons per hippocampal section for each rat.

Consider `CC[C@@H](C(N)=O)N1CCCC1=O` [levetiracetam, (2S)-2-(2-oxopyrrolidin-1-yl) butanamide], for which the “average no. of errors ± SEM in retention test” value in the test on aged-impaired (AI) rats (5 mg/kg/day i.p., t(9)=2.18, p=0.057) came out at 0.75±0.32; in the test on aged-impaired (AI) rats (10 mg/kg/day i.p., t(9)=2.37, p=0.042), 0.80±0.27. For the same molecule, the “performance of AI rats in the radial maze task” value in the test with aged-impaired (AI) rats (levetiracetam 20 mg/kg) is “fails to improve the performance”. Also, the “reducing the number of errors in the radial arm maze” value was “not at 1.25 mg/kg or 2.5 mg/kg” in the test with aged-impaired (AI) rats (1.25 mg/kg i.p.), “not at 1.25 mg/kg or 2.5 mg/kg” in the test with aged-impaired (AI) rats (2.5 mg/kg i.p.) and “effective in reducing the number of errors” with aged-impaired (AI) rats (5-10 mg/kg i.p.). In addition, the “levels of somatostatin in DG hilus (SOM-immunoreactive hilar neurons)” value in the test with somatostatin in DG hilus is listed as “restores the levels of somatostatin; also recorded: restores sematostatin in DG hilus”.
